Source: ChEMBL document CHEMBL5038679, “Fluoroalkylation of Dextromethorphan Improves CNS Exposure and Metabolic Stability” (ACS Med Chem Lett, 2022)
Values after ≈ are worked out from the molar mass of the structure shown.

Tests used:
[1] = target: T1, Sodium-dependent noradrenaline transporter (Homo sapiens, UniProt P23975); assay: Displacement of […] from NET (unknown origin) expressed in HEK cell membrane incubated for 2 hrs by liquid scintillation counter analysis
[2] = target: T2, Sodium-dependent serotonin transporter (Homo sapiens, UniProt P31645); assay: biochemical; assay type: cell-based, HEK
Description: Displacement of [3H]-Citalopram from SERT receptor (unknown origin) expressed in HEK cell membrane incubated for 2 hrs by liquid scintillation counter analysis

[3] = target: Glutamate [NMDA] receptor; assay: Displacement of […] from NMDA receptor (unknown origin) expressed in HEK cell membrane incubated for 2 hrs by liquid scintillation counter analysis
[4] = target: Sigma intracellular receptor 2 (Homo sapiens, UniProt Q5BJF2); assay: Displacement of […] from sigma-2 receptor (unknown origin) expressed in HEK cell membrane incubated for 2 hrs by liquid scintillation counter analysis
[5] = target: Sigma non-opioid intracellular receptor 1 (Homo sapiens, UniProt Q99720); assay: Displacement of […] from sigma-1 receptor (unknown origin) expressed in HEK cell membrane incubated for 2 hrs by liquid scintillation counter analysis
[6] = Aqueous solubility of compound in universal buffer at pH 7.4 at 100 uM incubated for 1.5 hrs under shaking condition by LC-MS/MS analysis; assay type: physicochemical
[7] = Aqueous solubility of compound in universal buffer at pH 3 at 100 uM incubated for 1.5 hrs under shaking condition by LC-MS/MS analysis; assay type: physicochemical
[8] = target: T2, Sodium-dependent serotonin transporter; assay type: cell-based, HEK293
[9] = target: T1, Sodium-dependent noradrenaline transporter; assay: Inhibition of human NET expressed in human HEK293 cells assessed as inhibition of substrate transport measured after 1 hr by flourescence based plate reader assay; assay type: cell-based
hERG (KCNH2) = hERG (KCNH2) (Homo sapiens, UniProt Q12809); assay: Inhibition of human ERG at 10 uM measured after 15 mins by plate reader method relative to control; assay type: toxicity
[10] = Stability in human liver microsomes assessed as half life at 10 uM measured upto 120 mins by LC-MS/MS analysis; assay type: ADME, Microsome
[11] = Efflux ratio of apparent permeability across basolateral to apical side over apical to basolateral side in dog MDCK-MDR1 cells measured after 30 to 120 mins by LC-MS analysis; assay type: ADME, cell-based, Canis lupus familiaris; settings: time 30-120 min
in vitro [12] = settings: human, liver microsomes
in vitro [13] = settings: dog, MDCK-MDR1
Description: Apparent permeability in dog MDCK-MDR1 cells from apical to basal side measured after 30 to 120 mins by LC-MS analysis

in vitro [14] = settings: dog, MDCK-MDR1; remark: listed apart in the source
Description: Apparent permeability in dog MDCK-MDR1 cells from basal to apical side measured after 30 to 120 mins by LC-MS analysis

[15] = Cmax in Sprague-Dawley rat plasma at 2.5 mg/kg, po measured after 24 hrs by LC-MS/MS analysis; assay type: ADME, organism-based; design: route oral, dose 2.5 mg/kg, time 24 hrs
[16] = Cmax in Sprague-Dawley rat brain at 2.5 mg/kg, po measured after 24 hrs by LC-MS/MS analysis; assay type: ADME, organism-based; design: route oral, time 24 hrs, dose 2.5 mg/kg
[17] = AUC in Sprague-Dawley rat plasma at 2.5 mg/kg, po measured after 24 hrs by LC-MS/MS analysis; assay type: ADME, organism-based; design: route oral, time 24 hrs, dose 2.5 mg/kg
[18] = AUC in Sprague-Dawley rat brain at 2.5 mg/kg, po measured after 24 hrs by LC-MS/MS analysis; assay type: ADME, organism-based; design: route oral, time 24 hrs, dose 2.5 mg/kg
[19] = Unbound brain-to-plasma concentration ratio in Sprague-Dawley rat; assay type: ADME, cell-free; settings: read-out: K(p,uu,brain)
[20] = Volume of distribution in Sprague-Dawley rat at 2.5 mg/kg, po measured after 24 hrs by LC-MS/MS analysis; assay type: ADME, organism-based; settings: in vivo
[21] = Clearance in Sprague-Dawley rat plasma at 2.5 mg/kg, po measured after 24 hrs by LC-MS/MS analysis; assay type: ADME, organism-based
[22] = Half life in Sprague-Dawley rat plasma at 2.5 mg/kg, po measured after 24 hrs by LC-MS/MS analysis; assay type: ADME, organism-based
[23] = Half life in Sprague-Dawley rat brain at 2.5 mg/kg, po measured after 24 hrs by LC-MS/MS analysis; assay type: ADME, organism-based
[24] = Protein binding in Sprague-Dawley rat plasma assessed as unbound fraction at 20 uM by NMR analysis; assay type: ADME, cell-free
[25] = Protein binding in Sprague-Dawley rat brain plasma assessed as unbound fraction at 5 uM measured after 4 hrs by LC-MS analysis; assay type: ADME, tissue-based

T1 sequence (P23975 whole entry): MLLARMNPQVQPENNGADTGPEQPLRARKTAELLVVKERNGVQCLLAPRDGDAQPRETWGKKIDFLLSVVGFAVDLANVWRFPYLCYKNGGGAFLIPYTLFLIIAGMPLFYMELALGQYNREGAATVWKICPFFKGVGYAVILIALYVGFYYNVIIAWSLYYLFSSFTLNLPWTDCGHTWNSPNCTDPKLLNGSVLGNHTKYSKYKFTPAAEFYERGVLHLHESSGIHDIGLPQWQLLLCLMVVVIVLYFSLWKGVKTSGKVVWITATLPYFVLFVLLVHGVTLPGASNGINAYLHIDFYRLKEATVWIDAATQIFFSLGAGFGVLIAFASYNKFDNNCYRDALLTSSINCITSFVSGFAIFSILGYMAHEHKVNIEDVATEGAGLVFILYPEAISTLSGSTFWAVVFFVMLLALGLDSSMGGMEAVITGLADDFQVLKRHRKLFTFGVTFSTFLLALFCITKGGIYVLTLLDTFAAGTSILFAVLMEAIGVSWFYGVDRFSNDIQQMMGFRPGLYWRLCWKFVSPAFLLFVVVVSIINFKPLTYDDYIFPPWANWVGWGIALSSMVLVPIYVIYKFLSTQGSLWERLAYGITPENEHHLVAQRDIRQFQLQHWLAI
hERG (KCNH2), sequence (Q12809 whole entry): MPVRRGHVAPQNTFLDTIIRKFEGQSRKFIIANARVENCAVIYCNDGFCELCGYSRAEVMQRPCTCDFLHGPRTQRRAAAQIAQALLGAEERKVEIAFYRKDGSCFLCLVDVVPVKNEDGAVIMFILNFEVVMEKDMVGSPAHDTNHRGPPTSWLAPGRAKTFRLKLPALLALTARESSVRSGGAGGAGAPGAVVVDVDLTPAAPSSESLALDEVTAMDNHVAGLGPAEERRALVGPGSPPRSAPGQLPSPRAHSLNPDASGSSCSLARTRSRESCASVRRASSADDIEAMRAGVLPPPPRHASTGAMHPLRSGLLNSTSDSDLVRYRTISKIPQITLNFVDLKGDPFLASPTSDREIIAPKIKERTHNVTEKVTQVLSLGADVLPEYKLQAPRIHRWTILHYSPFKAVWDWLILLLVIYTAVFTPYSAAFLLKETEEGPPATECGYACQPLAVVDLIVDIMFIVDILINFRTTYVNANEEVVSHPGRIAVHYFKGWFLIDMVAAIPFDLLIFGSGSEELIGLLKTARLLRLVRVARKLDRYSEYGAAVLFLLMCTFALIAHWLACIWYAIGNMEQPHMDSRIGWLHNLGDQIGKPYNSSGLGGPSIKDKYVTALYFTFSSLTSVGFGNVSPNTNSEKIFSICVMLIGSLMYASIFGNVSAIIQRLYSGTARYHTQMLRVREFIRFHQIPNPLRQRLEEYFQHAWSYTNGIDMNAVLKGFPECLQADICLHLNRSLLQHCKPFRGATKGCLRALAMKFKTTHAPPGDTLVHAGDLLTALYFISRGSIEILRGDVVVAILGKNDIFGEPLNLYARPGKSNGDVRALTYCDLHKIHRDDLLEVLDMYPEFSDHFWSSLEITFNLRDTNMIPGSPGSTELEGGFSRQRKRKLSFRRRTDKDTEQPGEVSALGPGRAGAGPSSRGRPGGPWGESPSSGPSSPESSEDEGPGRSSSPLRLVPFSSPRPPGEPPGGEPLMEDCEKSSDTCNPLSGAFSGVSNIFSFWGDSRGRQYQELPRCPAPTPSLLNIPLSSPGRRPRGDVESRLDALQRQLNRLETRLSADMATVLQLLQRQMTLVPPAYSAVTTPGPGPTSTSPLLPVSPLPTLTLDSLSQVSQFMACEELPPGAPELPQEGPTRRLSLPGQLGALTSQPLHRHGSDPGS
Sigma intracellular receptor 2, sequence (Q5BJF2 whole entry): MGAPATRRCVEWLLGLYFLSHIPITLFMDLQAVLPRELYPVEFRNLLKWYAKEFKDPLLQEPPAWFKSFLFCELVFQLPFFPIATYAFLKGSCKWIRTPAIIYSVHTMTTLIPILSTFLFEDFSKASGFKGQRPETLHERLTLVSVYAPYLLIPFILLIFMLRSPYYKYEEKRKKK
T2 sequence (P31645 whole entry): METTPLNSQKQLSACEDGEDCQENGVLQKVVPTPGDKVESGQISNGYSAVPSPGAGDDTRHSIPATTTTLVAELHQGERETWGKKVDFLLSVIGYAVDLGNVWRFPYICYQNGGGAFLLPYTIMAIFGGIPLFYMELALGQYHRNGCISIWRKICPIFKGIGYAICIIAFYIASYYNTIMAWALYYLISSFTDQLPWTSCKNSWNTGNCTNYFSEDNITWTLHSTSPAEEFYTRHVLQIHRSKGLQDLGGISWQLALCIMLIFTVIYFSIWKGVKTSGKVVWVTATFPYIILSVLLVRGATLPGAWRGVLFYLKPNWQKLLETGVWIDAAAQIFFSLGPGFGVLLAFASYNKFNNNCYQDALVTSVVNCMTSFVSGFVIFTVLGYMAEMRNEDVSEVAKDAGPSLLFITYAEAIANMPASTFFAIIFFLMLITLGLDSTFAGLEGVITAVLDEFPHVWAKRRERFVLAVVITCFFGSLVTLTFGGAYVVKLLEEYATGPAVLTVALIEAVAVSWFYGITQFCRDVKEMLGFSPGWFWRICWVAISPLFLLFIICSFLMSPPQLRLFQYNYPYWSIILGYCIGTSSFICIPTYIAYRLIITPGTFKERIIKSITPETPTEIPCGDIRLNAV
Sigma non-opioid intracellular receptor 1, sequence (Q99720 whole entry): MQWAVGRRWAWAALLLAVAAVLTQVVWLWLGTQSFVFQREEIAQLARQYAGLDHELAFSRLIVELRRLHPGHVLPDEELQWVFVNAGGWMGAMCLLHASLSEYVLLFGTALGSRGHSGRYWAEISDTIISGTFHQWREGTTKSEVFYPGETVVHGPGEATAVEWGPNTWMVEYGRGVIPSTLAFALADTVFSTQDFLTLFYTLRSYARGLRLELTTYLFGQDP

| Structure (SMILES) | Ki [1] [nM] | Ki [2] [nM] | Ki [3] [nM] | Ki [4] [nM] | Ki [5] [nM] | solubility at 1.5 h, 100 µM [6] [µM] | solubility at 1.5 h, 100 µM [7] [µM] | half-life at 10 µM [10] [h] | efflux ratio [11] | CLint scaled at 2 h, 10 µM (in vitro [12]) [mL/min/kg] | Papp A→B (in vitro [13]) [×10⁻⁶ cm/s] | Papp B→A (in vitro [14]) [×10⁻⁶ cm/s] | Cmax [15] [ng/mL] | Cmax [16] [ng/mL] | AUC at 24 h [17] [ng·h/mL] | AUC at 24 h [18] [ng·h/mL] | Kp uu at 20 µM [19] | CL/F [21] [mL/min/kg] | half-life [22] [h] | half-life [23] [h] | other results |
| --- | --- | --- | --- | --- | --- | --- | --- | --- | --- | --- | --- | --- | --- | --- | --- | --- | --- | --- | --- | --- | --- |
| CN1CC[C@]23CCCC[C@@H]2[C@H]1Cc1ccc(O)cc13 | > 340 | 401 | 486 | > 10000 | 118 |  |  |  |  |  |  |  |  |  |  |  |  |  |  |  |  |
| CN1CC[C@@]23CCCC[C@@H]2[C@@H]1Cc1ccc(OC(F)F)cc13 | > 10000 | 186 | > 10000 | 1280 | 568 | > 100 | 76 (≈ 23.4 µg/mL) | 4.22 | 0.77 | 4.94 | 1.28 | 0.979 |  |  |  |  |  |  |  |  | IC50 [8]: 55 nM; IC50 [9]: > 10000 nM; inhibition at 0.25 h, 10 µM (hERG (KCNH2)): 34.9% |
| CN1CC[C@@]23CCCC[C@@H]2[C@@H]1Cc1ccc(C(F)(F)F)cc13 | > 10000 | 125 | > 10000 | 885 | 813 | > 100 | 77 (≈ 23.8 µg/mL) | 3.2 | 0.75 | 6.48 | 1.22 | 0.915 |  |  |  |  |  |  |  |  | IC50 [8]: 60 nM; IC50 [9]: 1040 nM; inhibition at 0.25 h, 10 µM (hERG (KCNH2)): 5.1% |
| [2H]C([2H])([2H])N1CC[C@@]23CCCC[C@@H]2[C@@H]1Cc1ccc(C(F)(F)C(F)(F)F)cc13 |  |  |  |  |  | 82 (≈ 29.7 µg/mL) | 70 (≈ 25.4 µg/mL) | 2.07 |  | 10 |  |  |  |  |  |  |  |  |  |  |  |
| CN1CC[C@@]23CCCC[C@@H]2[C@@H]1Cc1ccc(C(F)(F)C(F)(F)F)cc13 | > 10000 | > 10000 | > 10000 | 1400 | > 10000 | > 100 | 77 (≈ 27.7 µg/mL) | 1.45 | 1 | 14.4 | 0.831 | 0.833 |  |  |  |  |  |  |  |  |  |
| CN1CC[C@@]23CCCC[C@@H]2[C@@H]1Cc1ccc(C(C)(F)F)cc13 | > 10000 | 301 | > 10000 | 826 | 675 | > 100 | 90 (≈ 27.5 µg/mL) | 2.47 | 1.09 | 8.42 | 0.763 | 0.833 |  |  |  |  |  |  |  |  |  |
| CN1CC[C@@]23CCCC[C@@H]2[C@@H]1Cc1ccc(OC(F)(F)F)cc13 | > 10000 | 48 | > 10000 | 833 | 757 | > 100 | 60 (≈ 19.5 µg/mL) | 3.67 | 1.13 | 5.66 | 0.989 | 1.12 | 12 | 756 | 131 | 9460 | 3.3 | 318 | 2.8 | 3.18 | IC50 [8]: 31 nM; IC50 [9]: > 10000 nM; inhibition at 0.25 h, 10 µM (hERG (KCNH2)): 6.1%; Vd [20]: 77 L/kg |
| [2H]C([2H])([2H])N1CC[C@@]23CCCC[C@@H]2[C@@H]1Cc1ccc(C(F)(F)F)cc13 |  |  |  |  |  | 95 (≈ 29.7 µg/mL) | 70 (≈ 21.9 µg/mL) | 1.34 |  | 15.4 |  |  |  |  |  |  |  |  |  |  |  |
| [2H]C([2H])([2H])N1CC[C@@]23CCCC[C@@H]2[C@@H]1Cc1ccc(C(C)(F)F)cc13 |  |  |  |  |  | 95 (≈ 29.3 µg/mL) | 67 (≈ 20.7 µg/mL) | 5.38 |  | 5.39 |  |  |  |  |  |  |  |  |  |  |  |
| COc1ccc2c(c1)[C@@]13CCCC[C@@H]1[C@@H](C2)N(C)CC3 | > 10000 |  | 624 | 862 | 73 | 94 (≈ 25.5 µg/mL) | 88 (≈ 23.9 µg/mL) | 3.42 |  | 6.09 | 1.48 | 1.21 | 9.7 | 214 | 21.3 | 389 | 27.9 | 2990 | 2 | 2.07 | IC50 [9]: > 10000 nM; inhibition at 0.25 h, 10 µM (hERG (KCNH2)): 0.1%; Cp(f) [24]: 19.3%; Cp(f) [25]: 21.6%; Vd [20]: 589 L/kg |
| [2H]C([2H])([2H])N1CC[C@@]23CCCC[C@@H]2[C@@H]1Cc1ccc(OC(F)F)cc13 |  |  |  |  |  | 101 (≈ 31.4 µg/mL) | 83 (≈ 25.8 µg/mL) | 1.58 |  | 13.2 |  |  |  |  |  |  |  |  |  |  |  |
| [2H]C([2H])([2H])Oc1ccc2c(c1)[C@@]13CCCC[C@@H]1[C@@H](C2)N(C([2H])([2H])[2H])CC3 |  |  |  |  |  | 112 (≈ 31.1 µg/mL) | 95.5 (≈ 26.5 µg/mL) | 4.4 |  | 4.72 |  |  | 5.5 | 53.1 | 15 | 97.3 | 10.8 | 1840 | 7.07 | 4.9 |  |
| [2H]C([2H])([2H])N1CC[C@@]23CCCC[C@@H]2[C@@H]1Cc1ccc(C(F)F)cc13 |  |  |  |  |  | 94 (≈ 27.7 µg/mL) | 70 (≈ 20.6 µg/mL) | 2.03 |  | 10.2 |  |  | 66 | 854 | 353 | 4060 | 4.1 | 135 | 2.65 | 1.62 | Cp(f) [24]: 28.8%; Cp(f) [25]: 9%; Vd [20]: 31 L/kg |
| CN1CC[C@@]23CCCC[C@@H]2[C@@H]1Cc1ccc(C(F)F)cc13 | 35 | 51 | > 10000 | 353 | 145 | > 100 | > 100 | 4.05 | 0.81 | 5.13 | 1.35 | 1.1 | 27 | 674 | 144 | 4930 | 7.8 | 288 | 3.33 | 2.57 | IC50 [8]: 24 nM; IC50 [9]: 944 nM; inhibition at 0.25 h, 10 µM (hERG (KCNH2)): 12%; Vd [20]: 85 L/kg |
| [2H]C([2H])([2H])N1CC[C@@]23CCCC[C@@H]2[C@@H]1Cc1ccc(OC(F)(F)F)cc13 |  |  |  |  |  | 100 (≈ 32.8 µg/mL) | 86 (≈ 28.2 µg/mL) | 2.67 |  | 7.81 |  |  | 32 | 725 | 205 | 5810 | 1.2 | 202 | 2.45 | 3.03 | Cp(f) [24]: 40.2%; Cp(f) [25]: 2.1%; Vd [20]: 43 L/kg |
